What all share (format): cell-based
Test [1] relates to PANC1 (a human pancreatic carcinoma). In words: IC50 activity in PANC1 cells. The protocol:
(§1) Compounds provided in Table 2 were prepared using methods similar to those described herein. The structures and IC50 activities of particular compounds in PANC1 (a human pancreatic carcinoma), TC32 (human ESFT cell line), and TC71 (human ESFT cell line) cells are summarized in Table 2.

Test [2] concerns TC32 (human ESFT cell line). In words: IC50 activity in TC32 cells. The protocol:
as §1

The test system of test [3] is TC71 (human ESFT cell line). In words: IC50 activity in TC71 cells. The protocol:
as §1
Growth inhibition of ESFT cells was measured for various concentrations of particular compounds.

The mark [4] stands for this setting: Homo sapiens, PANC-1, PANC1 cells.
Where [5] appears, read: Homo sapiens, TC-32, TC32 cells.
[6] abbreviates: Homo sapiens, TC-71, TC71 cells.

Where two headings read alike, the source gives them in different places.

Regarding `O=C(CC1(O)C(=O)Nc2c(Cl)ccc(Cl)c21)c1ccc(Cl)c(Cl)c1` (centres unmarked) [YK-4-287], the half-inhibitory concentration (IC50) stood at 12.6 µM in test [1] (setting [4]), 6320 nM in test [2] (setting [5]) and 15.8 µM in test [3] (setting [6]).
With `COc1ccc(C(=O)CC2(O)C(=O)Nc3cc(Cl)c(Cl)cc32)cc1` (centres unmarked) [PT-2-39], the 50% inhibitory concentration (IC50) in test [1] (setting [4]) is at least 40 µM; in test [2] (setting [5]), at least 40000 nM; in test [3] (setting [6]), at least 40 µM.
With `O=C(CC1(O)C(=O)Nc2c(Cl)ccc(Cl)c21)c1cccc(Cl)c1` (centres unmarked) [YK-4-281], the IC50 in test [1] (setting [4]) is at least 40 µM; in test [2] (setting [5]), 7220 nM; in test [3] (setting [6]), 29.6 µM.
In the same order, the values of `O=C(CC1(O)C(=O)Nc2c(Cl)ccc(Cl)c21)c1ccc(Br)cc1` (centres unmarked) [YK-4-283] are 12.7 µM, 8910 nM and 26 µM.
With `COc1ccc(C(=O)CC2(O)C(=O)Nc3cc(Br)cc(Br)c32)cc1` (centres unmarked) [PT-1-271], the IC50 is at least 40 µM in test [1] (setting [4]), at least 40000 nM in test [2] (setting [5]) and at least 40 µM in test [3] (setting [6]).
`CCOc1ccc(C(=O)/C=C2\C(=O)Nc3c(Cl)ccc(Cl)c32)cc1` [PT-1-43]: the values for the half-maximal inhibitory concentration (IC50) in test [1] (setting [4]), in test [2] (setting [5]) and in test [3] (setting [6]) were 11 µM, 1410 nM and 5.66 µM, respectively.
Regarding `O=C(CC1(O)C(=O)Nc2c(Cl)ccc(Cl)c21)c1ccc(Oc2ccccc2)cc1` (centres unmarked) [PT-1-60], the IC50 in test [1] (setting [4]) was at least 40 µM; in test [2] (setting [5]), at least 40000 nM; in test [3] (setting [6]) it was at least 40 µM.
As to `O=C(CC1(O)C(=O)Nc2c(Cl)ccc(Cl)c21)c1ccc(Cl)c(Cl)c1Cl` (centres unmarked) [YK-4-288], the IC50 in test [1] (setting [4]) was at least 40 µM; in test [2] (setting [5]), 3000 nM; in test [3] (setting [6]) it was 9.35 µM.
Take `O=C(CC1(O)C(=O)Nc2c(Cl)ccc(Cl)c21)c1ccc(OC(F)(F)F)cc1` (centres unmarked) [PT-1-16]: the figures for the concentration for half-maximal inhibition (IC50) in test [1] (setting [4]), in test [2] (setting [5]) and in test [3] (setting [6]) were at least 40 µM, at least 40000 nM and at least 40 µM, respectively.
For `COc1ccc(C(=O)/C=C2\C(=O)Nc3c(Cl)ccc(Cl)c32)c(OC)c1OC` [PT-1-41], the IC50 in test [1] (setting [4]) was determined as 2.85 µM; in test [1] (PANC1 cells, read-out: IC50 PANC 1) it was 5.16 µM; in test [2] (setting [5]), 1190 nM; in test [2] (TC32 cells) it was 1610 nM; in test [3] (setting [6]), 2.14 µM; in test [3] (TC71 cells), 1.6 µM.
On to `COc1ccc(C(=O)CC2(O)C(=O)Nc3ccc(Cl)cc32)cc1` (centres unmarked) [PT-2-56], for which the figures for the half-inhibitory concentration (IC50) in test [1] (setting [4]), in test [2] (setting [5]) and in test [3] (setting [6]) were at least 40 µM, 12400 nM and at least 40 µM, respectively.
In the case of `O=C(CC1(O)C(=O)N(Cc2ccccc2)c2c(Cl)ccc(Cl)c21)c1ccc(Cl)cc1` (centres unmarked) [YK-4-276], the IC50 in test [1] (setting [4]) was at least 40 µM; in test [2] (setting [5]) it was at least 40000 nM; in test [3] (setting [6]), at least 40 µM.
For `CSc1ccc(C(=O)CC2(O)C(=O)Nc3c(Cl)ccc(Cl)c32)cc1` (centres unmarked) [PT-1-67], the half-maximal inhibitory concentration (IC50) stood at 28.1 µM in test [1] (setting [4]); 982 nM in test [2] (setting [5]); 1200 nM in test [2] (TC32 cells); 0.909 µM in test [3] (setting [6]); 1.41 µM in test [3] (TC71 cells).
As to `CCCC(=O)CC1(O)C(=O)N(C)c2c(Cl)ccc(Cl)c21` (centres unmarked) [PT-2-71], the IC50 in test [1] (setting [4]) was at least 40 µM; in test [2] (setting [5]), at least 40000 nM; in test [3] (setting [6]) it was at least 40 µM.
For `Nc1ccc(C(=O)CC2(O)C(=O)Nc3c(Cl)ccc(Cl)c32)cc1` (centres unmarked) [YK-4-284], the values for the IC50 in test [1] (setting [4]), in test [2] (setting [5]) and in test [3] (setting [6]) were at least 40 µM, at least 40000 nM and at least 40 µM, respectively.
For `O=C(CC1(O)C(=O)Nc2c(Cl)ccc(Cl)c21)c1ccccc1` (centres unmarked) [YK-4-285], the figures for the IC50 in test [1] (setting [4]), in test [2] (setting [5]) and in test [3] (setting [6]) were at least 40 µM, at least 40000 nM and at least 40 µM, respectively.
With `COc1ccc(C(=O)/C=C2/C(=O)Nc3c(Cl)ccc(Cl)c32)cc1` [PT-1-54], the IC50 came to 1500 nM in test [2] (setting [5]), 2570 nM in test [2] (TC32 cells), 1.36 µM in test [3] (setting [6]) and 2.2 µM in test [3] (TC71 cells).
As to `CN(C)c1ccc(C(=O)/C=C2\C(=O)Nc3c(Cl)ccc(Cl)c32)cc1` [PT-1-38], the figures for the IC50 in test [2] (setting [5]) and in test [2] (TC32 cells) were 291 nM and 383 nM, respectively.
`COc1ccc(C(=O)CC2(O)C(=O)N(C)c3c(Cl)ccc(Cl)c32)cc1` (centres unmarked) [PT-2-69]: the values for the IC50 in test [1] (setting [4]), in test [2] (setting [5]) and in test [2] (TC32 cells) were at least 40 µM, 2180 nM and 2300 nM, respectively.

Broadly, the IC50 is the concentration that inhibits the measured activity by half.

These data come from patent US9511050B2, “Methods and compositions for treating cancer” (GEORGETOWN UNIVERSITY, priority 2013, dated 2016).
